Data on 32 compounds can be found in patent US6610698B2, “Substituted pyrimidine compounds and methods of use” (Amgen, Inc., priority 1996, dated 2003).

As usually defined, the IC50 is the concentration needed to halve the response being measured.

Counter-ions that a name gives are not always drawn.

The first assay has as its system TNF production by monocytes activated with bacterial lipopolysaccharide (LPS). The assay is described as follows: Lipopolysaccharide-activated monocyte TNF production assay. The class given is cell-based, human. Particulars: Homo sapiens, Monocyte, TNF in supernatant by ELISA, read-out: IC50 values in the monocyte assay (LPS induced TNF release). As for the experimental part:
Lipopolysaccharide-activated Monocyte TNF Production Assay
Test compounds were evaluated in vitro for the ability to inhibit the production of TNF by monocytes activated with bacterial lipopolysaccharide (LPS). Fresh residual source leukocytes (a byproduct of plateletpheresis) were obtained from a local blood bank, and peripheral blood mononuclear cells (PBMCS) were isolated by density gradient centrifugation on Ficol-Paque Plus (Pharmacia). PBMCs were suspended at 2×10^6/ml in DMEM supplemented to contain 2% FCS, 10 mM, 0.3 mg/ml […], 100 U/ml penicillin G and […] streptomycin sulfate (complete media). Cells were plated into Falcon flat bottom, 96 well culture plates (200 μl/well) and cultured overnight at 37° C. and 6% CO2. Non-adherent cells were removed by washing with 200 μl/well of fresh medium. Wells containing adherent cells (˜70% monocytes) were replenished with 100 μl of fresh medium.
Preparation of Test Compound Stock Solutions
Test compounds were dissolved in […]. Compound stock solutions were prepared to an initial concentration of […]. Stocks were diluted initially to 20-200 μM in complete media. Nine two-fold serial dilutions of each compound were then prepared in complete medium.
Treatment of Cells with Test Compounds and Activation of TNF Production with Lipopolysaccharide
One hundred microliters of each test compound dilution were added to microtiter wells containing adherent monocytes and 100 μl complete medium. Monocytes were cultured with test compounds for 60 min at which time 25 μl of complete medium containing 30 ng/ml lipopolysaccharide from E. coli K532 were added to each well. Cells were cultured an additional 4 hrs. Culture supernatants were then removed and TNF presence in the supernatants was quantified using an ELISA.
Flat bottom, 96 well Corning High Binding ELISA plates were coated overnight (4° C.) with 150 μL/well of 3 μg/ml murine anti-human TNF-α MAb (R&D Systems #MAB210). Wells were then blocked for 1 hr at room temperature with 200 μL/well of CaCl2-free ELISA buffer supplemented to contain 20 mg/ml BSA (standard ELISA buffer: […], 150 mM NaCl, 2 mM CaCl2, 0.15 mM thimerosal, pH 7.4). Plates were washed and replenished with 100 μl of test supernatants (diluted 1:3) or standards. Standards consisted of eleven 1.5-fold serial dilutions from a stock of 1 ng/ml recombinant human TNF (R&D Systems). Plates were incubated at room temperature for 1 hr on orbital shaker (300 rpm), washed and replenished with 100 μl/well of 0.5 μg/ml goat anti-human TNF-α (R&D systems #AB-210-NA) biotinylated at a 4:1 ratio. Plates were incubated for 40 min, washed and replenished with 100 μl/well of alkaline phosphatase-conjugated streptavidin (Jackson ImmunoResearch #016-050-084) at 0.02 μg/ml. Plates were incubated 30 min, washed and replenished with 200 μl/well of 1 mg/ml of p-nitrophenyl phosphate. After 30 min, plates were read at 405 nm on a Vmax plate reader.
Standard curve data were fit to a second order polynomial and unknown TNF-α concentrations determined from their OD by solving this equation for concentration. TNF concentrations were then plotted vs. test compound concentration using a second order polynomial. This equation was then used to calculate the concentration of test compounds causing a 50% reduction in TNF production.
For orientation: ELISA stands for enzyme-linked immunosorbent assay.
With `Fc1ccc(-c2cnc(N3CCOCC3)nc2-c2ccncc2)cc1` [Example 1-33, 5-(4-Fluorophenyl)-2-morpholino-4-(4-pyridyl)-pyrimidine], the IC50 was at most 20 µM.
For the compound `Cc1cccc(C)c1Nc1ncc(-c2ccc(F)cc2)c(-c2ccncc2)n1` [Example 1-25, 2-(2,6-Dimethylphenylamino)-5-(4-fluorophenyl)-4-(4-pyridyl)-pyrimidine], the IC50 was at most 20 µM.
Turning to `O=c1[nH]c(SCCOc2ccccc2)nc(-c2ccncc2)c1-c1ccc(F)cc1` [Example 5-3, 5-(4-Fluorophenyl)-2-(2-phenoxyethyl)thio-6-(4-pyridyl)-4(3H)-pyrimidinone], the IC50 is at most 20 µM.
On the same count and under the same terms, to `Fc1ccc(-c2cnc(NCCN3CCOCC3)nc2-c2ccncc2)cc1` [Example 2-30, 5-(4-Fluorophenyl)-2-(2-morpholinoethylamino)-4-(4-pyridyl)-pyrimidine] belongs at most 20 µM; to `Fc1ccc(-c2cnc(NCCc3ccc(Br)cc3)nc2-c2ccncc2)cc1` [Example 2-10, 2-(2-(4-Bromophenyl)-ethylamino)-5-(4-fluorophenyl)-4-(4-pyridyl)-pyrimidine], at most 20 µM; to `Fc1ccc(-c2cnc(NCCCCc3ccccc3)nc2-c2ccncc2)cc1` [Example 2-25, 5-(4-Fluorophenyl)-2-((4-phenyl-n-butyl)-amino)-4-(4-pyridyl)-pyrimidine], at most 20 µM.
For the compound `Fc1ccc(-c2cnc(-c3cccs3)nc2-c2ccncc2)cc1` [Example 1-18, 5-(4-Fluorophenyl)-4-(4-pyridyl)-2-(2-thienyl)-pyrimidine], the IC50 is at most 20 µM.
On to `O=c1[nH]c(SCCNc2ccccc2)nc(-c2ccncc2)c1-c1ccc(F)cc1` [Example 5-4, 5-(4-Fluorophenyl)-2-(2-phenylaminoethyl)thio-6-(4-pyridyl)-4(3H)-pyrimidinone], for which the IC50 was at most 20 µM.
The same measure, in the same setting: under `COc1cccc(CCNc2ncc(-c3ccc(F)cc3)c(-c3ccncc3)n2)c1` [Example 2-18, 5-(4-Fluorophenyl)-2-(2-(3-methoxyphenyl)-ethylamino)-4-(4-pyridyl)-pyrimidine] stands at most 20 µM; under `Fc1ccc(Nc2ncc(-c3ccc(F)cc3)c(-c3ccncc3)n2)cc1` [Example 1-27, 5-(4-Fluorophenyl)-2-(4-fluorophenylamino)-4-(4-pyridyl)-pyrimidine], at most 20 µM; under `COc1ccccc1CCNc1ncc(-c2ccc(F)cc2)c(-c2ccncc2)n1` [Example 2-15, 5-(4-Fluorophenyl)-2-(2-(2-methoxyphenyl)-ethylamino)-4-(4-pyridyl)-pyrimidine], at most 20 µM.
On the same count and under the same terms, under `O=c1[nH]c(Cc2c(Cl)cccc2Cl)nc(-c2ccncc2)c1-c1ccc(F)cc1` [Example 4-3, 2-(2,6-Dichlorobenzyl)-5-(4-fluorophenyl)-6-(4-pyridyl)-4(3H)-pyrimidinone] stands at most 20 µM; under `Fc1ccc(-c2cnc(CSc3ccccc3)nc2-c2ccncc2)cc1` [Example 1-10, 5-(4-Fluorophenyl)-2-phenylthiomethyl-4-(4-pyridinyl)-pyrimidine], at most 20 µM; under `O=C1CCCN1CCCNc1ncc(-c2ccc(F)cc2)c(-c2ccncc2)n1` [Example 2-34, 5-(4-Fluorophenyl)-2-(3-(2-pyrrolidinon-1-yl)-propylamino)-4-(4-pyridyl)-pyrimidine], at most 20 µM.
As to `Fc1ccc(-c2cnc(Nc3c(Cl)cccc3Cl)nc2-c2ccncc2)cc1` [Example 1-24, 2-(2,6-Dichlorophenylamino)-5-(4-fluorophenyl)-4-(4-pyridyl)-pyrimidine], the IC50 was at most 20 µM.
As for `NCCCCNc1ncc(-c2ccc(F)cc2)c(-c2ccncc2)n1` [Example 2-3, 2-(4-Aminobutylamino)-5-(4-fluorophenyl)-4-(4-pyridyl)-pyrimidine hydrochloride], the IC50 was at most 20 µM.
`CC(CCc1ccccc1)Nc1ncc(-c2ccc(F)cc2)c(-c2ccncc2)n1` (centres unmarked) [Example 2-23, 5-(4-Fluorophenyl)-2-((1-methyl-3-phenylpropyl)-amino)-4-(4-pyridyl)-pyrimidine]: the IC50 was at most 20 µM.
The same measure, in the same setting: under `Fc1ccc(-c2cnc(Cc3c(Cl)cccc3Cl)nc2-c2ccncc2)cc1` [Example 1-8, 2-(2,6-Dichlorobenzyl)-5-(4-fluorophenyl)-4-(4-pyridyl)-pyrimidine] stands at most 20 µM.
`Fc1ccc(-c2cnc(NCCN3CCCC3)nc2-c2ccncc2)cc1` [Example 2-32, 5-(4-Fluorophenyl)-4-(4-pyridyl)-2-(2-pyrrolidinoethylamino)-pyrimidine]: the IC50 is at most 20 µM.
As for `Fc1ccc(-c2cnc(-c3ccncc3)nc2-c2ccncc2)cc1` [Example 11, 5-(4-Fluorophenyl)-2,4-bis-(4-pyridyl)-pyrimidine], the IC50 was at most 20 µM.
For `Fc1ccc(-c2cnc(NCCN3CCCCC3)nc2-c2ccncc2)cc1` [Example 2-31, 5-(4-Fluorophenyl)-2-(2-piperidinoethylamino)-4-(4-pyridyl)-pyrimidine], the IC50 is at most 20 µM.
`CCN(CC)CCNc1ncc(-c2ccc(F)cc2)c(-c2ccncc2)n1` [Example 1-22, 2-(2-Diethylaminoethylamino)-5-(4-fluorophenyl)-4-(4-pyridyl)-pyrimidine]: the IC50 is at most 20 µM.
The same measure, in the same setting: under `Nc1ccc(CCNc2ncc(-c3ccc(F)cc3)c(-c3ccncc3)n2)cc1` [Example 2-12, 2-(2-(4-Aminophenyl)-ethylamino)-5-(4-fluorophenyl)-4-(4-pyridyl)-pyrimidine] stands at most 20 µM.

Still in this assay, the particulars now being: TNF in supernatant by ELISA, listed as 5-(4-Fluorophenyl)-2-(N-methyl-N-(2-phenylethyl)amino)-4-(4-pyridyl)-pyrimidine, read-out: IC50 values in the monocyte assay (LPS induced TNF release).
Regarding `CN(CCc1ccccc1)c1ncc(-c2ccc(F)cc2)c(-c2ccncc2)n1` [Example 2-21, 5-(4-Fluorophenyl)-2-(methyl-(2-phenylethyl)-amino)-4-(4-pyridyl)-pyrimidine], the IC50 was at most 5 µM.

Staying with this assay, now noted: TNF in supernatant by ELISA, read-out: IC50 values in the monocyte assay (LPS induced TNF release).
Turning to `Oc1ccc(CCNc2ncc(-c3ccc(F)cc3)c(-c3ccncc3)n2)cc1` [Example 2-11, 5-(4-Fluorophenyl)-2-(2-(4-hydroxyphenyl)-ethylamino)-4-(4-pyridyl)-pyrimidine], the IC50 was at most 5 µM.
Consider `CC(CCc1ccccc1)Nc1nc(-c2ccncc2)c(-c2ccc(F)cc2)c(=O)[nH]1` (centres unmarked) [Example 6-3, 5-(4-Fluorophenyl)-2-((1-methyl-3-phenylpropyl)-amino)-6-(4-pyridyl)-4(3H)-pyrimidinone], for which the IC50 was at most 5 µM.
`OC(CNc1ncc(-c2ccc(F)cc2)c(-c2ccncc2)n1)c1ccccc1` (centres unmarked) [Example 2-20, 5-(4-Fluorophenyl)-2-((2-hydroxy-2-phenyl)-ethylamino)-4-(4-pyridyl)-pyrimidine]: the concentration for half-maximal inhibition (IC50) was at most 5 µM.
With `Fc1ccc(CCNc2ncc(-c3ccc(F)cc3)c(-c3ccncc3)n2)cc1` [Example 2-8, 5-(4-Fluorophenyl)-2-(2-(4-fluorophenyl)-ethylamino)-4-(4-pyridyl)-pyrimidine], the IC50 is at most 5 µM.
In the case of `O=c1[nH]c(NCCCc2ccccc2)nc(-c2ccncc2)c1-c1ccc(F)cc1` [Example 6-2, 5-(4-Fluorophenyl)-2-((3-phenylpropyl)-amino)-6-(4-pyridyl)-4(3H)-pyrimidinone], the IC50 is at most 5 µM.
Turning to `Fc1ccc(-c2cnc(NCCCc3ccccc3)nc2-c2ccncc2)cc1` [Example 2-22, 5-(4-Fluorophenyl)-2-((3-phenylpropyl)-amino)-4-(4-pyridyl)-pyrimidine], the IC50 is at most 5 µM.
Regarding “5-(4-Fluorophenyl)-2-((3-imidazolylpropyl)-amino)-4-(4-pyridyl)-pyrimidine [Example 2-24]”, the IC50 was at most 5 µM.
Regarding `Fc1ccc(-c2cnc(NCCc3ccccc3F)nc2-c2ccncc2)cc1` [Example 2-13, 5-(4-Fluorophenyl)-2-(2-(2-fluorophenyl)-ethylamino)-4-(4-pyridyl)-pyrimidine], the IC50 is at most 5 µM.
